Several values for one entry are separate records, joined by “and”; a condition that tells them apart may be missing. Identical values can stand only once.
Tested on: 966289-007-R4-J1-PDC complex spheroid viability
Test: Anticancer human tumor 966289-007-R4-J1-PDC patient-derived pancreatic adenocarcinoma cell line growth inhibition [RAS]
Conditions: for viability, T/C: stronger effect = lower value
In short: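 Agents were tested in combination matrices in half-log decrements from a top concentration at or near clinical Cmax (10 microM if undetermined). Targets were multi-cell spheroids of tumour lines plus HUVEC and MSC stromal cells.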
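Note: spheroids exposed to agents for one week before readout.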
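Throughout, for viability, T/C: percent viability relative to DMSO vehicle control wells as 100%.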

CC1(O)CCCC1n1c(=O)c(C(F)F)cc2cnc(NC3CCN(S(C)(=O)=O)CC3)nc21 (stereo unspecified) + C=CC(=O)N1CCN(c2nc(OCC3CCCN3C)nc3c(F)c(-c4nc(N)cc(C)c4C(F)(F)F)c(Cl)cc23)C(C)C1
IC50 (curve of first compound, second compound 0.00316 µM): 133 nM | IC50 (curve of first compound, second compound 0.01 µM): 151 nM | IC50 (curve of first compound, second compound 0.0316 µM): 171 nM | IC50 (curve of first compound, second compound 0.1 µM): 156 nM | IC50 (curve of first compound, second compound 0.316 µM): 154 nM | IC50 (curve of first compound, second compound 1 µM): 125 nM | viability, T/C (second compound 0.00316 µM, first compound 0.0316 µM): 130% | viability, T/C (second compound 0.00316 µM, first compound 0.1 µM): 56.8% | viability, T/C (second compound 0.00316 µM, first compound 0.316 µM): 25% | viability, T/C (second compound 0.00316 µM, first compound 1 µM): 27% | viability, T/C (second compound 0.00316 µM, first compound 3.16 µM): 29.8% | viability, T/C (second compound 0.00316 µM, first compound 10 µM): 3.73% | viability, T/C (second compound 0.01 µM, first compound 0.0316 µM): 138% | viability, T/C (second compound 0.01 µM, first compound 0.1 µM): 66.5% | viability, T/C (second compound 0.01 µM, first compound 0.316 µM): 21.4% | viability, T/C (second compound 0.01 µM, first compound 1 µM): 28.2% | viability, T/C (second compound 0.01 µM, first compound 3.16 µM): 26.4% | viability, T/C (second compound 0.01 µM, first compound 10 µM): 3.99% | viability, T/C (second compound 0.0316 µM, first compound 0.0316 µM): 129% | viability, T/C (second compound 0.0316 µM, first compound 0.1 µM): 66.3% | viability, T/C (second compound 0.0316 µM, first compound 0.316 µM): 26.9% | viability, T/C (second compound 0.0316 µM, first compound 1 µM): 24.9% | viability, T/C (second compound 0.0316 µM, first compound 3.16 µM): 26.2% | viability, T/C (second compound 0.0316 µM, first compound 10 µM): 3.83% | viability, T/C (second compound 0.1 µM, first compound 0.0316 µM): 121% | viability, T/C (second compound 0.1 µM, first compound 0.1 µM): 60% | viability, T/C (second compound 0.1 µM, first compound 0.316 µM): 28.8% | viability, T/C (second compound 0.1 µM, first compound 1 µM): 27.8% | viability, T/C (second compound 0.1 µM, first compound 3.16 µM): 27.9% | viability, T/C (second compound 0.1 µM, first compound 10 µM): 3.1% | viability, T/C (second compound 0.316 µM, first compound 0.0316 µM): 117% | viability, T/C (second compound 0.316 µM, first compound 0.1 µM): 61.9% | viability, T/C (second compound 0.316 µM, first compound 0.316 µM): 25.1% | viability, T/C (second compound 0.316 µM, first compound 1 µM): 27.7% | viability, T/C (second compound 0.316 µM, first compound 3.16 µM): 23.1% | viability, T/C (second compound 0.316 µM, first compound 10 µM): 3.69% | viability, T/C (second compound 1 µM, first compound 0.0316 µM): 123% | viability, T/C (second compound 1 µM, first compound 0.1 µM): 56.8% | viability, T/C (second compound 1 µM, first compound 0.316 µM): 21.2% | viability, T/C (second compound 1 µM, first compound 1 µM): 24% | viability, T/C (second compound 1 µM, first compound 3.16 µM): 22.8% | viability, T/C (second compound 1 µM, first compound 10 µM): 3.51%

NC1c2ccccc2OC12CCN(c1cnc3c(N4CCCc5ncccc54)n[nH]c3n1)CC2 (stereo unspecified) + CCn1c(-c2cccnc2C(C)OC)c2c3cc(ccc31)N1CCOC(CC(NC(=O)C(C(C)C)N(C)C(=O)C3(F)CCN(C(=O)C#CC(C)(C)N(C)C)CC3)C(=O)N3CCCC(N3)C(=O)OCC(C)(C)C2)C1
IC50 (curve of first compound, second compound 0.000949 µM): > 10000 nM | IC50 (curve of first compound, second compound 0.003 µM): > 10000 nM | IC50 (curve of first compound, second compound 0.00949 µM): > 10000 nM | IC50 (curve of first compound, second compound 0.03 µM): > 10000 nM | IC50 (curve of first compound, second compound 0.0949 µM): > 10000 nM | IC50 (curve of first compound, second compound 0.3 µM): > 10000 nM | viability, T/C (second compound 0.000949 µM, first compound 0.0316 µM): 113% | viability, T/C (second compound 0.000949 µM, first compound 0.1 µM): 81.5% | viability, T/C (second compound 0.000949 µM, first compound 0.316 µM): 109% | viability, T/C (second compound 0.000949 µM, first compound 1 µM): 69.6% | viability, T/C (second compound 0.000949 µM, first compound 3.16 µM): 82.1% | viability, T/C (second compound 0.000949 µM, first compound 10 µM): 74.5% | viability, T/C (second compound 0.003 µM, first compound 0.0316 µM): 113% | viability, T/C (second compound 0.003 µM, first compound 0.1 µM): 59% | viability, T/C (second compound 0.003 µM, first compound 0.316 µM): 102% | viability, T/C (second compound 0.003 µM, first compound 1 µM): 63.4% | viability, T/C (second compound 0.003 µM, first compound 3.16 µM): 91.9% | viability, T/C (second compound 0.003 µM, first compound 10 µM): 96.9% | viability, T/C (second compound 0.00949 µM, first compound 0.0316 µM): 92.4% | viability, T/C (second compound 0.00949 µM, first compound 0.1 µM): 76.4% | viability, T/C (second compound 0.00949 µM, first compound 0.316 µM): 77.6% | viability, T/C (second compound 0.00949 µM, first compound 1 µM): 88.4% | viability, T/C (second compound 0.00949 µM, first compound 3.16 µM): 104% | viability, T/C (second compound 0.00949 µM, first compound 10 µM): 93.2% | viability, T/C (second compound 0.03 µM, first compound 0.0316 µM): 62.7% | viability, T/C (second compound 0.03 µM, first compound 0.1 µM): 73.7% | viability, T/C (second compound 0.03 µM, first compound 0.316 µM): 96.9% | viability, T/C (second compound 0.03 µM, first compound 1 µM): 74.3% | viability, T/C (second compound 0.03 µM, first compound 3.16 µM): 104% | viability, T/C (second compound 0.03 µM, first compound 10 µM): 94.8% | viability, T/C (second compound 0.0949 µM, first compound 0.0316 µM): 80.9% | viability, T/C (second compound 0.0949 µM, first compound 0.1 µM): 91.1% | viability, T/C (second compound 0.0949 µM, first compound 0.316 µM): 128% | viability, T/C (second compound 0.0949 µM, first compound 1 µM): 91.8% | viability, T/C (second compound 0.0949 µM, first compound 3.16 µM): 117% | viability, T/C (second compound 0.0949 µM, first compound 10 µM): 107% | viability, T/C (second compound 0.3 µM, first compound 0.0316 µM): 94.4% | viability, T/C (second compound 0.3 µM, first compound 0.1 µM): 89.3% | viability, T/C (second compound 0.3 µM, first compound 0.316 µM): 96% | viability, T/C (second compound 0.3 µM, first compound 1 µM): 103% | viability, T/C (second compound 0.3 µM, first compound 3.16 µM): 147% | viability, T/C (second compound 0.3 µM, first compound 10 µM): 91.9%

Cc1nc(N2CCC3(CC2)COC(C)C3N)c(CO)nc1Sc1ccnc(N)c1Cl (stereo unspecified)
viability, T/C (compound 0.316 µM): 108% [middle of 4 runs] | viability, T/C (compound 1 µM): 102% (2×) and 73.6% and 119% | viability, T/C (compound 10 µM): 95.5% [middle of 4 runs] | IC50 (curve of compound): > 10000 nM

C#Cc1c(F)ccc2cc(O)cc(-c3ncc4c(N5CC6CCC(C5)N6)nc(OCC56CCCN5CC(F)C6)nc4c3F)c12 (stereo unspecified)
viability, T/C (compound 0.316 µM): 114% [middle of 8 runs] | viability, T/C (compound 3.16 µM): 94.4% [middle of 8 runs] | IC50 (compound alone, run of 06/10/2024): > 10000 nM
